Measurements from ChEMBL document CHEMBL1201862, “PubChem BioAssay data set” (2004).
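Test compounds were applied to cells in 96-well plates for 48 hours at 5 doses. Here, GI50 denotes the concentration required for 50% inhibition of growth.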 Active and inactive are the calls of the source. Rule as the data show it: active = GI50 up to about 1.1 µM and inactive = higher.

Experiments:
Experiment in all cases: inhibition of tumour cell growth, NCI panel, 48 h
[1] = system: COLO 205
[2] = system: EKVX
[3] = system: HOP-92
[4] = system: K562
[5] = system: KM12
[6] = system: M14
[7] = system: NCI-H23
[8] = system: OVCAR-4
[9] = system: OVCAR-5
[10] = system: RPMI-8226
[11] = system: RXF 393
[12] = system: SF-268
[13] = system: SF-539
[14] = system: SK-MEL-2
[15] = system: SNB-19
[16] = system: SNB-75
[17] = system: UACC-257
[18] = system: UO-31
[19] = system: PC-3

Structure (SMILES)	GI50 [1]	GI50 [2]	GI50 [3]	GI50 [4]	GI50 [5]	GI50 [6]	GI50 [7]	GI50 [8]	GI50 [9]	GI50 [10]	GI50 [11]	GI50 [12]	GI50 [13]	GI50 [14]	GI50 [15]	GI50 [16]	GI50 [17]	GI50 [18]	GI50 [19]
CCOc1ccccc1NC(=O)C1=C(C)NC(C)=C(C(=O)Nc2ccccc2OCC)C1c1cccc([N+](=O)[O-])c1	> 100 µM (inactive)	30.1 µM (inactive)	4.29 µM (inactive)	28.2 µM (inactive)	49.9 µM (inactive)	> 100 µM (inactive)	> 100 µM (inactive)	14.2 µM (inactive)	> 100 µM (inactive)	8.22 µM (inactive)	47.4 µM (inactive)	> 100 µM (inactive)	40.2 µM (inactive)	39.3 µM (inactive)	> 100 µM (inactive)	11.6 µM (inactive)	27.2 µM (inactive)	28.2 µM (inactive)	
CC(=O)CC(=O)N(CCN(C(=O)CC(C)=O)c1ccccc1)c1ccccc1	> 100 µM (inactive)	> 100 µM (inactive)	> 100 µM (inactive)	> 100 µM (inactive)	> 100 µM (inactive)	> 100 µM (inactive)	> 100 µM (inactive)	> 100 µM (inactive)	> 100 µM (inactive)	72.9 µM (inactive)	> 100 µM (inactive)	> 100 µM (inactive)	> 100 µM (inactive)	> 100 µM (inactive)	> 100 µM (inactive)	51.8 µM (inactive)	32.2 µM (inactive)	> 100 µM (inactive)	
COc1cc2c(cc1OC)C1c3ccccc3C(C#N)(C2)N(C(=O)c2ccccc2)C1O (centres undefined)	22.8 µM (inactive)	75 µM (inactive)	> 100 µM (inactive)	36.5 µM (inactive)	46.5 µM (inactive)	79.1 µM (inactive)	84.5 µM (inactive)		> 100 µM (inactive)	45 µM (inactive)	85.5 µM (inactive)	> 100 µM (inactive)	> 100 µM (inactive)	56.5 µM (inactive)	59 µM (inactive)	45.7 µM (inactive)	60.7 µM (inactive)	61.8 µM (inactive)	
COC(=O)C1=C(O)c2cc3c(cc2[C@H](c2cc(OC)c(OC)c(OC)c2)C1)OCO3	19.3 µM (inactive)		96.8 µM (inactive)	22.5 µM (inactive)	23.3 µM (inactive)	34.7 µM (inactive)	41.7 µM (inactive)	32.5 µM (inactive)	> 100 µM (inactive)	23 µM (inactive)	57.9 µM (inactive)	51.5 µM (inactive)	> 100 µM (inactive)		> 100 µM (inactive)	> 100 µM (inactive)	34 µM (inactive)	3.24 µM (inactive)	
CC1(Cl)CC(C)(/C=C/Cl)C(Cl)CC1Cl (centres undefined)		12.1 µM (inactive)	0.615 µM (active)	9.79 µM (inactive)	16.6 µM (inactive)	17 µM (inactive)	19.8 µM (inactive)	17.7 µM (inactive)	18.9 µM (inactive)		14.8 µM (inactive)	15.9 µM (inactive)	17.1 µM (inactive)	13.5 µM (inactive)	17.4 µM (inactive)	18.8 µM (inactive)		16.1 µM (inactive)	
COC(=O)C(=CNC(N)=O)C(=O)OC	> 100 µM (inactive)	> 100 µM (inactive)	> 100 µM (inactive)	> 100 µM (inactive)	> 100 µM (inactive)	> 100 µM (inactive)	> 100 µM (inactive)		> 100 µM (inactive)	> 100 µM (inactive)		> 100 µM (inactive)	> 100 µM (inactive)	> 100 µM (inactive)	> 100 µM (inactive)		> 100 µM (inactive)	> 100 µM (inactive)	> 100 µM (inactive)
CC1=CCCC2C(C=O)(C1)CC(C)C2(CO)CC/C(=C/CO)CO (centres undefined)	> 100 µM (inactive)	> 100 µM (inactive)	30 µM (inactive)	89.5 µM (inactive)	> 100 µM (inactive)	> 100 µM (inactive)	90.6 µM (inactive)			67.3 µM (inactive)	> 100 µM (inactive)					37.8 µM (inactive)	98.9 µM (inactive)	24.9 µM (inactive)	
Cc1c(C(=O)/C=C/c2ccccc2)[n+]([O-])c2ccccc2[n+]1[O-]	16.3 µM (inactive)	14.9 µM (inactive)	11.6 µM (inactive)	15.6 µM (inactive)	15.9 µM (inactive)	15.3 µM (inactive)	15.7 µM (inactive)	15 µM (inactive)	16.7 µM (inactive)	17.8 µM (inactive)	2.07 µM (inactive)	19.7 µM (inactive)	15.5 µM (inactive)		15.7 µM (inactive)	23.6 µM (inactive)	16.6 µM (inactive)	20 µM (inactive)	
